Test results as given in US20230266302A1, “SYNTHESIS AND USE OF N-BENZYL SULFONAMIDES” (THE UNIVERSITY OF TULSA, priority 2020, published 2023).

Key:
Test in all cases: ATP level assay (CellTiter-Glo), percent of control
Format in all cases: cell-based
[1] = tested on: MDA-MB (breast cancer); conditions: two hour incubation; for activity at 100 µM: 2 h, compound alone, control DMSO, read-out: POC (percent of control) MDA-MB
[2] = tested on: T47D (breast cancer); conditions: two hour incubation; for activity at 100 µM: Homo sapiens, T47D, 2 h, compound alone, control DMSO, read-out: POC (percent of control) T47D
[3] = tested on: H293 (kidney cancer); conditions: two hour incubation; for activity at 100 µM: 2 h, compound alone, control DMSO, read-out: POC (percent of control) H293
[4] = tested on: HDF (normal cells); conditions: two hour incubation; for activity at 100 µM: 2 h, compound alone, control DMSO, read-out: POC (percent of control) HDF
[5] = tested on: PC3 (prostate cancer); conditions: two hour incubation; for activity at 100 µM: 2 h, compound alone, control DMSO, read-out: POC (percent of control) PC3
[6] = tested on: NCI-H196 (lung cancer); conditions: two hour incubation; for activity at 100 µM: NCI-H196, 2 h, compound alone, control DMSO, read-out: POC (percent of control) NCI-H196
[7] = tested on: BxPC3 (pancreatic cancer); conditions: two hour incubation; for activity at 100 µM: Homo sapiens, BXPC-3, 2 h, compound alone, control DMSO, read-out: POC (percent of control) BxPC3
[8] = tested on: MCF7 (breast cancer); conditions: two hour incubation; for activity at 100 µM: Homo sapiens, MCF7, 2 h, compound alone, control DMSO, read-out: POC (percent of control) MCF7
[9] = tested on: SkBr3 (breast cancer); conditions: two hour incubation; for activity at 100 µM: Homo sapiens, SK-BR-3, 2 h, compound alone, control DMSO, read-out: POC (percent of control) SkBr3
[10] = tested on: HeLa (cervical cancer); conditions: two hour incubation; for activity at 100 µM: Homo sapiens, HeLa, 2 h, compound alone, control DMSO, read-out: POC (percent of control) HeLa
[11] = tested on: MCF10A (non-cancerous breast); conditions: two hour incubation; for activity at 100 µM: Homo sapiens, MCF-10A, 2 h, compound alone, control DMSO, read-out: POC (percent of control) MCF10A
[12] = compound 100 uM + 2DG (about 10-20 mM)
[13] = compound 100 uM + rotenone (approximately 1.25 μM)

Compound | activity at 100 µM [1] [%] | POC (percent of control) MDA-MB [1, 12] | POC (percent of control) MDA-MB [1, 13] | activity at 100 µM [2] [%] | POC (percent of control) T47D [2, 12] | POC (percent of control) T47D [2, 13] | activity at 100 µM [3] [%] | POC (percent of control) H293 [3, 12] | POC (percent of control) H293 [3, 13] | activity at 100 µM [4] [%] | POC (percent of control) HDF [4, 12] | POC (percent of control) HDF [4, 13] | activity at 100 µM [5] [%] | POC (percent of control) PC3 [5, 12] | POC (percent of control) PC3 [5, 13] | activity at 100 µM [6] [%] | POC (percent of control) NCI-H196 [6, 12] | POC (percent of control) NCI-H196 [6, 13] | activity at 100 µM [7] [%] | POC (percent of control) BxPC3 [7, 12] | further results
Cn1ncc2cc(CNS(=O)(=O)c3ccc(Cl)cc3)ccc21 [Compound 10, 4-chloro-N-[(1-methyl-1H-indazol-5-yl)methyl]benzenesulfonamide] | 94.1 | 86.7% of control | 87.4% of control | 63.5 | 76.6% of control | 91.4% of control | 106 | 84% of control | 70.8% of control | 88.6 | 92.7% of control | 82.2% of control | 115 | 97.8% of control | 98.7% of control | 106 | 90.8% of control | 103.7% of control | 66.3 | 62.9% of control | POC (percent of control) BxPC3 [7, 13]: 54.4% of control; activity at 100 µM [8]: 115%; POC (percent of control) MCF7 [8, 12]: 121.2% of control; POC (percent of control) MCF7 [8, 13]: 89.4% of control; activity at 100 µM [9]: 90.8%; POC (percent of control) SkBr3 [9, 12]: 98% of control; POC (percent of control) SkBr3 [9, 13]: 107.3% of control; activity at 100 µM [10]: 106%; POC (percent of control) HeLa [10, 12]: 91.3% of control; POC (percent of control) HeLa [10, 13]: 85.5% of control; activity at 100 µM [11]: 92%; POC (percent of control) MCF10A [11, 12]: 100.4% of control; POC (percent of control) MCF10A [11, 13]: 83.5% of control
O=S(=O)(NCc1cncnc1)c1ccc(Cl)cc1 [Compound 14, 4-chloro-N-(pyrimidin-5-ylmethyl)benzenesulfonamide] | 105 | 86% of control | 87.5% of control | 86.7 | 106.4% of control | 114.8% of control | 84.9 | 82.1% of control | 82.4% of control | 96.1 | 96.3% of control | 90.9% of control | 111 | 101.7% of control | 101.7% of control | 86.9 | 107.3% of control | 109% of control | 93.8 | 95.4% of control | POC (percent of control) BxPC3 [7, 13]: 60.9% of control; activity at 100 µM [8]: 126%; POC (percent of control) MCF7 [8, 12]: 109.8% of control; POC (percent of control) MCF7 [8, 13]: 94.4% of control; activity at 100 µM [9]: 107%; POC (percent of control) SkBr3 [9, 12]: 96.9% of control; POC (percent of control) SkBr3 [9, 13]: 98.3% of control; activity at 100 µM [10]: 98.3%; POC (percent of control) HeLa [10, 12]: 106.4% of control; POC (percent of control) HeLa [10, 13]: 102.1% of control; activity at 100 µM [11]: 103%; POC (percent of control) MCF10A [11, 12]: 119.1% of control; POC (percent of control) MCF10A [11, 13]: 94.3% of control
O=S(=O)(NCc1cscn1)c1ccc(Cl)cc1 [Compound 18, 4-chloro-N-(1,3-thiazol-4-ylmethyl)benzenesulfonamide] | 102 | 86.1% of control | 100% of control | 95.7 | 82.8% of control | 100.6% of control | 67.3 | 96.3% of control | 67.4% of control | 96.1 | 93% of control | 95.7% of control | 74 | 94% of control | 97.2% of control | 97.4 | 108.3% of control | 87.3% of control | 100 | 85.4% of control | POC (percent of control) BxPC3 [7, 13]: 94.3% of control; activity at 100 µM [8]: 110%; POC (percent of control) MCF7 [8, 12]: 137.3% of control; POC (percent of control) MCF7 [8, 13]: 82% of control; activity at 100 µM [9]: 112%; POC (percent of control) SkBr3 [9, 12]: 107.2% of control; POC (percent of control) SkBr3 [9, 13]: 96.6% of control; activity at 100 µM [10]: 99.5%; POC (percent of control) HeLa [10, 12]: 100% of control; POC (percent of control) HeLa [10, 13]: 97.3% of control; activity at 100 µM [11]: 119%; POC (percent of control) MCF10A [11, 12]: 92.2% of control; POC (percent of control) MCF10A [11, 13]: 86.9% of control
